Molecular target: T1, K-Ras G12C (Homo sapiens, UniProt P01116, G12C)
T1 construct: This protein contained 188 amino acids in total, including an N-terminal 6-Histidine tag; made in house; host or cells: E. coli BL21
Test: CAF assay (% CAF; method in Example 7, not in this part)
Assay type: binding

SMILES	% CAF @ 10 uM, 1h (10 uM, 1 h, Table 3) [%]	% CAF @ 10 uM, 1h (10 uM compound, 1 h incubation) [%]
C=CC(=O)N1CCN(c2nc(=O)n3c4c(c(-c5cccc6cnn(C)c56)c(Cl)cc24)SCC3)[C@@H](C)C1 (atropisomer, axis not shown) [Example 107, (S)-7-((S)-4-acryloyl-2-methylpiperazin-1-yl)-9-chloro-10-(1-methyl-1H-indazol-7-yl)-2,3-dihydro-5H-[1,4]thiazino[2,3,4-ij]quinazolin-5-one]	0	
C=CC(=O)N1CCN(c2nc(=O)n3c4c(c(-c5cccc6cnn(C)c56)c(Cl)cc24)SCC3)[C@@H](C)C1 (atropisomer, axis not shown) [Example 108, (R)-7-((S)-4-acryloyl-2-methylpiperazin-1-yl)-9-chloro-10-(1-methyl-1H-indazol-7-yl)-2,3-dihydro-5H-[1,4]thiazino[2,3,4-ij]quinazolin-5-one]	91.7	
C=CC(=O)N1CCN(c2nc(=O)n3c4c(c(-c5ccccc5F)c(Cl)cc24)SCC3)[C@@H](C)C1 (atropisomer, axis not shown) [Example 123, (R)-7-((S)-4-acryloyl-2-methylpiperazin-1-yl)-9-chloro-10-(2-fluorophenyl)-2,3-dihydro-5H-[1,4]thiazino[2,3,4-ij]quinazolin-5-one]	91.3	
C=CC(=O)N1CCN(c2nc(=O)n3c4c(c(-c5ccccc5F)c(Cl)cc24)SCC3)[C@@H](C)C1 (atropisomer, axis not shown) [Example 124, (S)-7-((S)-4-acryloyl-2-methylpiperazin-1-yl)-9-chloro-10-(2-fluorophenyl)-2,3-dihydro-5H-[1,4]thiazino[2,3,4-ij]quinazolin-5-one]	96	
C=CC(=O)N1CCN(c2nc(=O)n3c4c(c(-c5cccc6ccccc56)c(Cl)cc24)SCC3)[C@@H](C)C1 (atropisomer, axis not shown) [Example 172, 7-((S)-4-acryloyl-2-methylpiperazin-1-yl)-9-chloro-10-(naphthalen-1-yl)-2,3-dihydro-5H-[1,4]thiazino[2,3,4-ij]quinazolin-5-one]	51.9	
C=CC(=O)N1C[C@H](C)N(c2nc(=O)n3c4c(c(-c5ccc(F)cc5F)c(Cl)cc24)S(=O)(=O)CC3)C[C@H]1C (atropisomer, axis not shown) [Example 177, (S)-7-((2S,5R)-4-acryloyl-2,5-dimethylpiperazin-1-yl)-9-chloro-10-(2,4-difluorophenyl)-2,3-dihydro-5H-[1,4]thiazino[2,3,4-ij]quinazolin-5-one 1,1-dioxide]	93.5	
C=CC(=O)N1C[C@H](C)N(c2nc(=O)n3c4c(c(-c5ccc(F)cc5F)c(Cl)cc24)S(=O)(=O)CC3)C[C@H]1C (atropisomer, axis not shown) [Example 178, (R)-7-((2S,5R)-4-acryloyl-2,5-dimethylpiperazin-1-yl)-9-chloro-10-(2,4-difluorophenyl)-2,3-dihydro-5H-[1,4]thiazino[2,3,4-ij]quinazolin-5-one 1,1-dioxide]	58.3	
C=CC(=O)N1CCN(c2nc(=O)n3c4c(c(-c5ccc(F)cc5F)c(Cl)cc24)SCC3)[C@@H](C)C1 (atropisomer, axis not shown) [Example 180, (R)-7-((S)-4-acryloyl-2-methylpiperazin-1-yl)-9-chloro-10-(2,4-difluorophenyl)-2,3-dihydro-5H-[1,4]thiazino[2,3,4-ij]quinazolin-5-one]	94.7	
C=CC(=O)N1C[C@H](C)N(c2nc(=O)n3c4c(c(-c5cccc6ccccc56)c(Cl)cc24)SCC3)C[C@H]1C (atropisomer, axis not shown) [Example 183, 7-((2S,5R)-4-acryloyl-2,5-dimethylpiperazin-1-yl)-9-chloro-10-(naphthalen-1-yl)-2,3-dihydro-5H-[1,4]thiazino[2,3,4-ij]quinazolin-5-one]	45.3	
C=CC(=O)N1CCN(c2nc(=O)n3c4c(c(-c5cc(Cl)c(F)cc5F)c(Cl)cc24)SC[C@@H]3CN2CCC3(CC2)COC3)[C@@H](C)C1 (atropisomer, axis not shown) [Example 482, (3S,10S)-3-((2-oxa-7-azaspiro[3.5]nonan-7-yl)methyl)-7-((S)-4-acryloyl-2-methylpiperazin-1-yl)-9-chloro-10-(5-chloro-2,4-difluorophenyl)-2,3-dihydro-5H-[1,4]thiazino[2,3,4-ij]quinazolin-5-one]		90
C=CC(=O)N1CCN(c2nc(=O)n3c4c(c(-c5cc(Cl)c(F)cc5F)c(Cl)cc24)SC[C@@H]3CN2CCC3(CC2)COC3)[C@@H](C)C1 (atropisomer, axis not shown) [Example 483, (3S,10R)-3-((2-oxa-7-azaspiro[3.5]nonan-7-yl)methyl)-7-((S)-4-acryloyl-2-methylpiperazin-1-yl)-9-chloro-10-(5-chloro-2,4-difluorophenyl)-2,3-dihydro-5H-[1,4]thiazino[2,3,4-ij]quinazolin-5-one]		15.7
C=CC(=O)N1C[C@H](C)N(c2nc(=O)n3c4c(c(-c5cc(F)c(F)cc5F)c(Cl)cc24)SC[C@@H]3CN2CCC3(CC2)COC3)C[C@H]1C (atropisomer, axis not shown) [Example 484, (3S,10S)-3-((2-oxa-7-azaspiro[3.5]nonan-7-yl)methyl)-7-((2S,5R)-4-acryloyl-2,5-dimethylpiperazin-1-yl)-9-chloro-10-(2,4,5-trifluorophenyl)-2,3-dihydro-5H-[1,4]thiazino[2,3,4-ij]quinazolin-5-one]		77.9
C=CC(=O)N1C[C@H](C)N(c2nc(=O)n3c4c(c(-c5cc(F)c(F)cc5F)c(Cl)cc24)SC[C@@H]3CN2CCC3(CC2)COC3)C[C@H]1C (atropisomer, axis not shown) [Example 485, (3S,10R)-3-((2-oxa-7-azaspiro[3.5]nonan-7-yl)methyl)-7-((2S,5R)-4-acryloyl-2,5-dimethylpiperazin-1-yl)-9-chloro-10-(2,4,5-trifluorophenyl)-2,3-dihydro-5H-[1,4]thiazino[2,3,4-ij]quinazolin-5-one]		45
C=CC(=O)N1C[C@H](C)N(c2nc(=O)n3c4c(c(-c5ccc(F)cc5F)c(C(F)(F)F)cc24)SC[C@@H]3COC)C[C@H]1C (atropisomer, axis not shown) [Example 508, (3S,10S)-7-((2S,5R)-4-acryloyl-2,5-dimethylpiperazin-1-yl)-10-(2,4-difluorophenyl)-3-(methoxymethyl)-9-(trifluoromethyl)-2,3-dihydro-5H-[1,4]thiazino[2,3,4-ij]quinazolin-5-one]		92
C=CC(=O)N1C[C@H](C)N(c2nc(=O)n3c4c(c(-c5ccc(F)cc5F)c(C(F)(F)F)cc24)SC[C@@H]3COC)C[C@H]1C (atropisomer, axis not shown) [Example 509, (3S,10R)-7-((2S,5R)-4-acryloyl-2,5-dimethylpiperazin-1-yl)-10-(2,4-difluorophenyl)-3-(methoxymethyl)-9-(trifluoromethyl)-2,3-dihydro-5H-[1,4]thiazino[2,3,4-ij]quinazolin-5-one]		96.5
C=CC(=O)N1C[C@H](C)N(c2nc(=O)n3c4c(c(-c5ccc(F)cc5F)c(C(F)(F)F)cc24)SC[C@@H]3COCCOC)C[C@H]1C (atropisomer, axis not shown) [Example 510, (3S,10S)-7-((2S,5R)-4-acryloyl-2,5-dimethylpiperazin-1-yl)-10-(2,4-difluorophenyl)-3-((2-methoxyethoxy)methyl)-9-(trifluoromethyl)-2,3-dihydro-5H-[1,4]thiazino[2,3,4-ij]quinazolin-5-one]		72.9
C=CC(=O)N1C[C@H](C)N(c2nc(=O)n3c4c(c(-c5ccc(F)cc5F)c(C(F)(F)F)cc24)SC[C@@H]3COCCOC)C[C@H]1C (atropisomer, axis not shown) [Example 511, (3S,10R)-7-((2S,5R)-4-acryloyl-2,5-dimethylpiperazin-1-yl)-10-(2,4-difluorophenyl)-3-((2-methoxyethoxy)methyl)-9-(trifluoromethyl)-2,3-dihydro-5H-[1,4]thiazino[2,3,4-ij]quinazolin-5-one]		80.6
C=CC(=O)N1C[C@H](C)N(c2nc(=O)n3c4c(c(-c5cc(Cl)c(F)cc5F)c(C(F)(F)F)cc24)SC[C@@H]3COC)C[C@H]1C (atropisomer, axis not shown) [Example 544, (3S,10S)-7-((2S,5R)-4-acryloyl-2,5-dimethylpiperazin-1-yl)-10-(5-chloro-2,4-difluorophenyl)-3-(methoxymethyl)-9-(trifluoromethyl)-2,3-dihydro-5H-[1,4]thiazino[2,3,4-ij]quinazolin-5-one]		48.8
C=CC(=O)N1C[C@H](C)N(c2nc(=O)n3c4c(c(-c5cc(Cl)c(F)cc5F)c(C(F)(F)F)cc24)SC[C@@H]3COC)C[C@H]1C (atropisomer, axis not shown) [Example 545, (3S,10R)-7-((2S,5R)-4-acryloyl-2,5-dimethylpiperazin-1-yl)-10-(5-chloro-2,4-difluorophenyl)-3-(methoxymethyl)-9-(trifluoromethyl)-2,3-dihydro-5H-[1,4]thiazino[2,3,4-ij]quinazolin-5-one]		94.1
C=CC(=O)N1[C@H](C)CN(c2nc(=O)n3c4c(c(-c5ccc(F)cc5F)c(C(F)(F)F)cc24)SC[C@@H]3COC)C[C@@H]1C (atropisomer, axis not shown) [Example 546, (3S,10S)-7-((3S,5R)-4-acryloyl-3,5-dimethylpiperazin-1-yl)-10-(2,4-difluorophenyl)-3-(methoxymethyl)-9-(trifluoromethyl)-2,3-dihydro-5H-[1,4]thiazino[2,3,4-ij]quinazolin-5-one]		94.3
C=CC(=O)N1[C@H](C)CN(c2nc(=O)n3c4c(c(-c5ccc(F)cc5F)c(C(F)(F)F)cc24)SC[C@@H]3COC)C[C@@H]1C (atropisomer, axis not shown) [Example 547, (3S,10R)-7-((3S,5R)-4-acryloyl-3,5-dimethylpiperazin-1-yl)-10-(2,4-difluorophenyl)-3-(methoxymethyl)-9-(trifluoromethyl)-2,3-dihydro-5H-[1,4]thiazino[2,3,4-ij]quinazolin-5-one]		96.7

From patent US20230107642A1 (Erasca, Inc., priority 2020, published 2023)
